Patent US5525599A, “7-substituted-amino-3-substituted-3-cephem-4-carboxylic acids” (Eli Lilly and Company, priority 1993, dated 1996)
In brackets after ≈: the same amount, converted by molar mass.

How the values were obtained:
E. coli (EC14) = assay: In vitro activity (MIC), agar dilution method; format: cell-based; conditions: Escherichia coli
Method: (§1) Cephalosporins 9a-o were assayed against a broad array of Gram-positive and Gram-negative bacteria in Mueller-Hinton agar by the 2-fold serial dilution method, (Kirst, H. A.; J. Antibiot. 1982, 35, 1675).
(§2) Test compounds were diluted to an appropriate range of concentrations in 0.1M phosphate buffer (pH 7), incorporated into Mueller-Hinton agar (difco) supplemented with 1% Bacto-Supplement C (Difco) at 50° C. and allowed to solidify in petri dishes. Fresh overnight cultures of test bacteria were diluted to approximately 1×10^4 cells/mL aand applied in […] to the surface of the agar plates. The inoculated plates were incubated overnight at 35° C. in ambient air. MIC endpoints were recorded as the lowest antibiotic concentrations that inhibited the development of visible bacterial growth on the plates.

E. coli (N10) = assay: In vitro activity (MIC), agar dilution method; format: cell-based; conditions: Escherichia coli
Method: as §1, §2

E. coli (TEM) = assay: In vitro activity (MIC), agar dilution method; format: cell-based; conditions: Escherichia coli
Method: as §1, §2

Enter. faecalis (2041) = assay: In vitro activity (MIC), agar dilution method; format: cell-based; conditions: Enterococcus faecalis
Method: as §1, §2

Enter. faecium (X66) = assay: In vitro activity (MIC), agar dilution method; format: cell-based; conditions: Enterococcus faecium
Method: as §1, §2

H. influenzae (76) = assay: In vitro activity (MIC), agar dilution method; format: cell-based; conditions: Haemophilus influenzae
Method: as §1, §2

H. influenzae (C.L.) = assay: In vitro activity (MIC), agar dilution method; format: cell-based; conditions: Haemophilus influenzae
Method: as §1, §2

K. pneumonia (KAE) = assay: In vitro activity (MIC), agar dilution method; format: cell-based; conditions: Klebsiella pneumoniae
Method: as §1, §2

K. pneumonia (X26) = assay: In vitro activity (MIC), agar dilution method; format: cell-based; conditions: Klebsiella pneumoniae
Method: as §1, §2

K. pneumonia (X68) = assay: In vitro activity (MIC), agar dilution method; format: cell-based; conditions: Klebsiella pneumoniae
Method: as §1, §2

Staph. aureus (S13E) = assay: In vitro activity (MIC), agar dilution method; format: cell-based; conditions: Staphylococcus aureus
Method: as §1, §2

Staph. aureus (V41) = assay: In vitro activity (MIC), agar dilution method; format: cell-based; conditions: Staphylococcus aureus
Method: as §1, §2

Staph. aureus (X1.1) = assay: In vitro activity (MIC), agar dilution method; format: cell-based; conditions: Staphylococcus aureus
Method: as §1, §2

Staph. aureus (X400) = assay: In vitro activity (MIC), agar dilution method; format: cell-based; conditions: Staphylococcus aureus
Method: as §1, §2

Staph. epiderm. (222) = assay: In vitro activity (MIC), agar dilution method; format: cell-based; conditions: Staphylococcus epidermidis
Method: as §1, §2

Strept. pyogenes (C203) = assay: In vitro activity (MIC), agar dilution method; format: cell-based; conditions: Streptococcus pyogenes
Method: as §1, §2

other Gram(-) bacteria = assay: In vitro activity (MIC), agar dilution method; format: cell-based
Gram-positive bacteria = conditions: in words; background statement; cited from earlier work

CN[C@H](CC(C)C)C(=O)N[C@H]1C(=O)N[C@@H](CC(N)=O)C(=O)N[C@H]2C(=O)N[C@H]3C(=O)N[C@H](C(=O)N[C@H](C(=O)O)c4cc(O)cc(O)c4-c4cc3ccc4O)[C@H](O)c3ccc(c(Cl)c3)Oc3cc2cc(c3O[C@@H]2O[C@H](CO)[C@@H](O)[C@H](O)[C@H]2O[C@H]2C[C@](C)(N)[C@H](O)[C@H](C)O2)Oc2ccc(cc2Cl)[C@H]1O [Vanc, Vancomycin, reference compound]
MIC (E. coli (EC14)): 128 µg/mL (≈ 88.3 µM) | MIC (E. coli (N10)): 128 µg/mL (≈ 88.3 µM) | MIC (E. coli (TEM)): 128 µg/mL (≈ 88.3 µM) | MIC (Enter. faecalis (2041)): 2 µg/mL (≈ 1.38 µM) | MIC (Enter. faecium (X66)): 0.5 µg/mL (≈ 0.345 µM) | MIC (H. influenzae (76)): 128 µg/mL (≈ 88.3 µM) | MIC (H. influenzae (C.L.)): 64 µg/mL (≈ 44.2 µM) | MIC (K. pneumonia (KAE)): 128 µg/mL (≈ 88.3 µM) | MIC (K. pneumonia (X26)): 128 µg/mL (≈ 88.3 µM) | MIC (K. pneumonia (X68)): 128 µg/mL (≈ 88.3 µM) | MIC (Staph. aureus (S13E)): 0.5 µg/mL (≈ 0.345 µM) | MIC (Staph. aureus (V41)): 0.5 µg/mL (≈ 0.345 µM) | MIC (Staph. aureus (X1.1)): 0.5 µg/mL (≈ 0.345 µM) | MIC (Staph. aureus (X400)): 0.5 µg/mL (≈ 0.345 µM) | MIC (Staph. epiderm. (222)): 0.5 µg/mL (≈ 0.345 µM) | MIC (Strept. pyogenes (C203)): 0.5 µg/mL (≈ 0.345 µM) | MIC (other Gram(-) bacteria): 128 µg/mL (≈ 88.3 µM) | activity against Gram-positive bacteria including methicillin-resistant staphylococci (Gram-positive bacteria): potent activity only against the Gram-positive bacteria including methicillin-resistant staphylococci
